Measurements: US20240100023A1, “Compositions and Methods For Treating Spinal Cord Injuries” (priority 2020, published 2024)

Legend:
BDNF and NGF mRNAs = assay: BDNF and NGF mRNA prevalence in brain regions (anti-sense cRNA assays); format: in vivo; conditions: for NGF message levels in the dentate gyrus granule cell layers: ampakine-stimulated versus vehicle-treated control; for BDNF and NGF mRNAs in layer II of the piriform cortex: systemic, CX516 30 mg/kg/day, CX691 3 mg/kg/day
Text: Ampakines enhanced NGF mRNA somewhat more than that of BDNF.

[1] = test system: fragile X syndrome (FXS) patients; conditions: in vivo; cited from earlier work

For `O=C(c1ccc2nonc2c1)N1CCCCC1` [CX691], the “NGF message levels in the dentate gyrus granule cell layers” value (BDNF and NGF mRNAs) was “significantly enhanced” and the “BDNF and NGF mRNAs in layer II of the piriform cortex” value (BDNF and NGF mRNAs) was “significantly up-regulated”.

In the case of `O=C(c1ccc2nccnc2c1)N1CCCCC1` [CX516], the “NGF message levels in the dentate gyrus granule cell layers” value (BDNF and NGF mRNAs) is listed as “significantly enhanced”, the “BDNF and NGF mRNAs in layer II of the piriform cortex” value (BDNF and NGF mRNAs) is listed as “significantly up-regulated” and the “Memory, language use, attention, executive and overall functioning in FXS” value [1] is listed as “did not exhibit improved memory”.

In the case of `O=C1c2cc3c(cc2OC2CCCN12)OCCO3` (stereo not drawn) [CX614, reference compound], the “Concentration at which seizure activity is seen in hippocampal slices” value (hippocampal slices) is reported as 16 µM.
